This is an account of results in ChEMBL document CHEMBL3351686, “Facile and diastereoselective synthesis of 3,2'-spiropyrrolidine-oxindoles derivatives, their molecular docking and antiproliferative activities” (2015).

Values after ≈ are worked out from the molar mass of the structure shown.

The first assay has as its system Salmonella typhimurium. In words: Antibacterial activity against Salmonella typhimurium MTCC 1251 assessed as zone of inhibition at 1 mg/disc after 24 hrs by disc diffusion method. The assay is classed as functional, Salmonella enterica subsp. enterica serovar Typhimurium.
Conditions: not given
(In agar diffusion tests the substance spreads into inoculated agar from a disc or well.)
As to `CCCCN1C(=O)[C@]2(c3ccccc31)[C@H](c1cn(-c3ccccc3)nc1-c1ccccc1)[C@@](C#N)(C(=O)c1c[nH]c3ccccc13)C1CSCN12` (some centres undefined), the “inhibition zone (IZ)” value stood at 9 mm.

The subject of the next assay is Klebsiella pneumoniae. As to the kind of experiment: Antibacterial activity against Klebsiella pneumoniae MTCC 109 assessed as zone of inhibition at 1 mg/disc after 24 hrs by disc diffusion method.
Conditions: not given
The assay is classed as functional.
`CCCCN1C(=O)[C@]2(c3ccccc31)[C@H](c1cn(-c3ccccc3)nc1-c1ccccc1)[C@@](C#N)(C(=O)c1c[nH]c3ccccc13)C1CSCN12` (some centres undefined): the “inhibition zone (IZ)” value was 9 mm.

The test system of another assay is Proteus vulgaris. As to the kind of experiment: Antibacterial activity against Proteus vulgaris MTCC 1771 assessed as zone of inhibition at 1 mg/disc after 24 hrs by disc diffusion method. It counts as functional.
Conditions: not given
On to `N#C[C@]1(C(=O)c2c[nH]c3ccccc23)C2CSCN2[C@]2(C(=O)N(Cc3ccccc3)c3ccccc32)[C@@H]1c1cn(-c2ccccc2)nc1-c1ccccc1` (some centres undefined), for which the “inhibition zone (IZ)” value is 10 mm.

Another assay concerns Micrococcus luteus. As to the kind of experiment: Antibacterial activity against Micrococcus luteus MTCC 106 assessed as zone of inhibition at 1 mg/disc after 24 hrs by disc diffusion method. It counts as functional.
Conditions: not given
Take `CCCCN1C(=O)[C@]2(c3ccccc31)[C@H](c1cn(-c3ccccc3)nc1-c1ccccc1)[C@@](C#N)(C(=O)c1c[nH]c3ccccc13)C1CSCN12` (some centres undefined): the “inhibition zone (IZ)” value amounted to 10 mm.

In the next assay the test system is Klebsiella aerogenes. In words: Antibacterial activity against Enterobacter aerogenes MTCC 111 assessed as zone of inhibition at 1 mg/disc after 24 hrs by disc diffusion method. The assay is classed as functional.
Conditions: not given
Consider `CCCCN1C(=O)[C@]2(c3ccccc31)[C@H](c1cn(-c3ccccc3)nc1-c1ccccc1)[C@@](C#N)(C(=O)c1c[nH]c3ccccc13)C1CSCN12` (some centres undefined), for which the “inhibition zone (IZ)” value is given as 9 mm.

The next assay concerns Staphylococcus epidermidis. In words: Antibacterial activity against Staphylococcus epidermidis MTCC 3615 assessed as zone of inhibition at 1 mg/disc after 24 hrs by disc diffusion method.
Conditions: not given
The assay is classed as functional.
For the compound `CCCCN1C(=O)[C@]2(c3ccccc31)[C@H](c1cn(-c3ccccc3)nc1-c1ccccc1)[C@@](C#N)(C(=O)c1c[nH]c3ccccc13)C1CSCN12` (some centres undefined), the “inhibition zone (IZ)” value came to 10 mm.

Another assay concerns Staphylococcus aureus. As to the kind of experiment: Antibacterial activity against Staphylococcus aureus MTCC 96 assessed as zone of inhibition at 1 mg/disc after 24 hrs by disc diffusion method. The assay is classed as functional.
Conditions: not given
`CCCCN1C(=O)[C@]2(c3ccccc31)[C@H](c1cn(-c3ccccc3)nc1-c1ccccc1)[C@@](C#N)(C(=O)c1c[nH]c3ccccc13)C1CSCN12` (some centres undefined): the “inhibition zone (IZ)” value was determined as 8 mm.

The next assay concerns Salmonella typhimurium. In words: Antibacterial activity against Salmonella typhimurium MTCC 1251 assessed as inhibition of visual growth after 24 hrs. The assay is classed as functional, Salmonella enterica subsp. enterica serovar Typhimurium. The following applies: Salmonella enterica, MTCC 1251, 24 h.
A word on the MIC: it is the lowest concentration that inhibits growth of the organism. Turning to `N#C[C@]1(C(=O)c2c[nH]c3ccccc23)C2CSCN2[C@]2(C(=O)N(Cc3ccccc3)c3ccccc32)[C@@H]1c1cn(-c2ccccc2)nc1-c1ccccc1` (some centres undefined), the MIC amounted to 250 µg/mL (≈ 346 µM).

For `CCCCN1C(=O)[C@]2(c3ccccc31)[C@H](c1cn(-c3ccccc3)nc1-c1ccccc1)[C@@](C#N)(C(=O)c1c[nH]c3ccccc13)C1CSCN12` (some centres undefined), the MIC is 250 µg/mL (≈ 363 µM).

The next assay relates to Klebsiella pneumoniae. In words: Antibacterial activity against Klebsiella pneumoniae MTCC 109 assessed as inhibition of visual growth after 24 hrs. The following applies: MTCC 109, 24 h. It counts as functional.
In the case of `N#C[C@]1(C(=O)c2c[nH]c3ccccc23)C2CSCN2[C@]2(C(=O)N(Cc3ccccc3)c3ccccc32)[C@@H]1c1cn(-c2ccccc2)nc1-c1ccccc1` (some centres undefined), the MIC amounted to 250 µg/mL (≈ 346 µM).

Take `CCCCN1C(=O)[C@]2(c3ccccc31)[C@H](c1cn(-c3ccccc3)nc1-c1ccccc1)[C@@](C#N)(C(=O)c1c[nH]c3ccccc13)C1CSCN12` (some centres undefined): the minimum inhibitory concentration (MIC) came out at 500 µg/mL (≈ 726 µM).

Another assay has as its system Proteus vulgaris. As to the kind of experiment: Antibacterial activity against Proteus vulgaris MTCC 1771 assessed as inhibition of visual growth after 24 hrs. It counts as functional. The settings on record: MTCC 1771, 24 h.
As for `N#C[C@]1(C(=O)c2c[nH]c3ccccc23)C2CSCN2[C@]2(C(=O)N(Cc3ccccc3)c3ccccc32)[C@@H]1c1cn(-c2ccccc2)nc1-c1ccccc1` (some centres undefined), the minimal inhibitory concentration (MIC) stood at 500 µg/mL (≈ 692 µM).

On to `CCCCN1C(=O)[C@]2(c3ccccc31)[C@H](c1cn(-c3ccccc3)nc1-c1ccccc1)[C@@](C#N)(C(=O)c1c[nH]c3ccccc13)C1CSCN12` (some centres undefined), for which the MIC worked out at 500 µg/mL (≈ 726 µM).

A further assay concerns Shigella flexneri. As to the kind of experiment: Antibacterial activity against Shigella flexneri MTCC 1457 assessed as inhibition of visual growth after 24 hrs. It counts as functional. The settings on record: MTCC 1457, 24 h.
Turning to `N#C[C@]1(C(=O)c2c[nH]c3ccccc23)C2CSCN2[C@]2(C(=O)N(Cc3ccccc3)c3ccccc32)[C@@H]1c1cn(-c2ccccc2)nc1-c1ccccc1` (some centres undefined), the MIC was determined as 500 µg/mL (≈ 692 µM).

Regarding `CCCCN1C(=O)[C@]2(c3ccccc31)[C@H](c1cn(-c3ccccc3)nc1-c1ccccc1)[C@@](C#N)(C(=O)c1c[nH]c3ccccc13)C1CSCN12` (some centres undefined), the MIC amounted to 500 µg/mL (≈ 726 µM).

For another assay, the system named is Micrococcus luteus. As to the kind of experiment: Antibacterial activity against Micrococcus luteus MTCC 106 assessed as inhibition of visual growth after 24 hrs. The assay is classed as functional. The settings on record: MTCC 106, 24 h.
Take `N#C[C@]1(C(=O)c2c[nH]c3ccccc23)C2CSCN2[C@]2(C(=O)N(Cc3ccccc3)c3ccccc32)[C@@H]1c1cn(-c2ccccc2)nc1-c1ccccc1` (some centres undefined): the MIC is 250 µg/mL (≈ 346 µM).

`CCCCN1C(=O)[C@]2(c3ccccc31)[C@H](c1cn(-c3ccccc3)nc1-c1ccccc1)[C@@](C#N)(C(=O)c1c[nH]c3ccccc13)C1CSCN12` (some centres undefined): the MIC worked out at 250 µg/mL (≈ 363 µM).

For another assay, the system named is Klebsiella aerogenes. In words: Antibacterial activity against Enterobacter aerogenes MTCC 111 assessed as inhibition of visual growth after 24 hrs. The assay is classed as functional. The settings on record: MTCC 111, 24 h.
On to `N#C[C@]1(C(=O)c2c[nH]c3ccccc23)C2CSCN2[C@]2(C(=O)N(Cc3ccccc3)c3ccccc32)[C@@H]1c1cn(-c2ccccc2)nc1-c1ccccc1` (some centres undefined), for which the MIC is 250 µg/mL (≈ 346 µM).

Take `CCCCN1C(=O)[C@]2(c3ccccc31)[C@H](c1cn(-c3ccccc3)nc1-c1ccccc1)[C@@](C#N)(C(=O)c1c[nH]c3ccccc13)C1CSCN12` (some centres undefined): the MIC amounted to 500 µg/mL (≈ 726 µM).

Another assay relates to Staphylococcus epidermidis. As to the kind of experiment: Antibacterial activity against Staphylococcus epidermidis MTCC 3615 assessed as inhibition of visual growth after 24 hrs. The assay is classed as functional. The settings on record: MTCC 3615, 24 h.
For the compound `N#C[C@]1(C(=O)c2c[nH]c3ccccc23)C2CSCN2[C@]2(C(=O)N(Cc3ccccc3)c3ccccc32)[C@@H]1c1cn(-c2ccccc2)nc1-c1ccccc1` (some centres undefined), the MIC was 125 µg/mL (≈ 173 µM).

For the compound `CCCCN1C(=O)[C@]2(c3ccccc31)[C@H](c1cn(-c3ccccc3)nc1-c1ccccc1)[C@@](C#N)(C(=O)c1c[nH]c3ccccc13)C1CSCN12` (some centres undefined), the MIC was 250 µg/mL (≈ 363 µM).

For another assay, the system named is Staphylococcus aureus. As to the kind of experiment: Antibacterial activity against Staphylococcus aureus MTCC 96 assessed as inhibition of visual growth after 24 hrs. The assay is classed as functional. The settings on record: MTCC 96, 24 h.
Regarding `N#C[C@]1(C(=O)c2c[nH]c3ccccc23)C2CSCN2[C@]2(C(=O)N(Cc3ccccc3)c3ccccc32)[C@@H]1c1cn(-c2ccccc2)nc1-c1ccccc1` (some centres undefined), the minimal inhibitory concentration (MIC) was determined as 62.5 µg/mL (≈ 86.5 µM).

As for `CCCCN1C(=O)[C@]2(c3ccccc31)[C@H](c1cn(-c3ccccc3)nc1-c1ccccc1)[C@@](C#N)(C(=O)c1c[nH]c3ccccc13)C1CSCN12` (some centres undefined), the minimum inhibitory concentration (MIC) was 250 µg/mL (≈ 363 µM).

For a further assay, the system named is Staphylococcus aureus. As to the kind of experiment: Antibacterial activity against methicillin-resistant Staphylococcus aureus assessed as inhibition of visual growth after 24 hrs.
Conditions: not given
The assay is classed as functional.
Regarding `N#C[C@]1(C(=O)c2c[nH]c3ccccc23)C2CSCN2[C@]2(C(=O)N(Cc3ccccc3)c3ccccc32)[C@@H]1c1cn(-c2ccccc2)nc1-c1ccccc1` (some centres undefined), the MIC was found to be 500 µg/mL (≈ 692 µM).

Consider `CCCCN1C(=O)[C@]2(c3ccccc31)[C@H](c1cn(-c3ccccc3)nc1-c1ccccc1)[C@@](C#N)(C(=O)c1c[nH]c3ccccc13)C1CSCN12` (some centres undefined), for which the MIC turned out to be 500 µg/mL (≈ 726 µM).

A further assay relates to Candida albicans. As to the kind of experiment: Antifungal activity against Candida albicans MTCC 227 assessed as inhibition of visual growth after 48 to 72 hrs. The assay is classed as functional.
Conditions: not given
In the case of `N#C[C@]1(C(=O)c2c[nH]c3ccccc23)C2CSCN2[C@]2(C(=O)N(Cc3ccccc3)c3ccccc32)[C@@H]1c1cn(-c2ccccc2)nc1-c1ccccc1` (some centres undefined), the minimal inhibitory concentration (MIC) worked out at 500 µg/mL (≈ 692 µM).

Turning to `CCCCN1C(=O)[C@]2(c3ccccc31)[C@H](c1cn(-c3ccccc3)nc1-c1ccccc1)[C@@](C#N)(C(=O)c1c[nH]c3ccccc13)C1CSCN12` (some centres undefined), the MIC stood at 125 µg/mL (≈ 181 µM).

The test system of the next assay is Malassezia pachydermatis. In words: Antifungal activity against Malassezia pachydermatis assessed as inhibition of visual growth after 48 to 72 hrs. The assay is classed as functional.
Conditions: not given
Regarding `N#C[C@]1(C(=O)c2c[nH]c3ccccc23)C2CSCN2[C@]2(C(=O)N(Cc3ccccc3)c3ccccc32)[C@@H]1c1cn(-c2ccccc2)nc1-c1ccccc1` (some centres undefined), the minimum inhibitory concentration (MIC) turned out to be 500 µg/mL (≈ 692 µM).

`CCCCN1C(=O)[C@]2(c3ccccc31)[C@H](c1cn(-c3ccccc3)nc1-c1ccccc1)[C@@](C#N)(C(=O)c1c[nH]c3ccccc13)C1CSCN12` (some centres undefined): the MIC is 125 µg/mL (≈ 181 µM).
